Literature values in US20090162921A1 (priority 2005, published 2009).

Tested on: mouse
Conditions: in vivo; for LD50: po

Question: For `C[As+](C)(C)CC(=O)[O-]` [AB, arsenobetaine], which “LD50 (50% of the fatal dose in mouse)” value is on record?
Answer: 10000 mg/kg

Question: And the LD50?
Answer: 10000

Question: Which results are given for arsenic acid [As(V)]?
Answer: LD50 (50% of the fatal dose in mouse): 14 to 18 mg/kg; LD50: 14 to 18 mg/kg
